Assay results reported in article PMC9706563, “Development of Macrocyclic PRMT5–Adaptor Protein Interaction Inhibitors” (Journal of Medicinal Chemistry, 2022).
Square brackets hold non-standard residues; d marks the D form. Peptide text beside a SMILES is read from it. * marks the point of attachment. FITC = O=C1OC2(c3ccc(O)cc3Oc3cc(O)ccc32)c2ccc(NC(=S)*)cc21; Phe(4-guanidino) = N=C(N)Nc1ccc(C[C@H](N)C(=O)O)cc1; Phe(3-CF3) = N[C@@H](Cc1cccc(C(F)(F)F)c1)C(=O)O; Phe(F5) = N[C@@H](Cc1c(F)c(F)c(F)c(F)c1F)C(=O)O; Phe(3-Cl) = N[C@@H](Cc1cccc(Cl)c1)C(=O)O; 1Nal = N[C@@H](Cc1cccc2ccccc12)C(=O)O; 2Pal = N[C@@H](Cc1ccccn1)C(=O)O; NMeV = CN[C@H](C(=O)O)C(C)C; NMeA = CN[C@@H](C)C(=O)O; Dab = NCC[C@H](N)C(=O)O; Nva = CCC[C@H](N)C(=O)O; Abu = CC[C@H](N)C(=O)O

biological target: T1, PRMT5-MEP50 (Homo sapiens, UniProt O14744); assay: Direct binding fluorescence polarization (FP) assay of FITC-labeled peptides; settings: FITC-labeled peptide 1 nM, PRMT5-MEP50 titrated, read-out: KD
T1 construct: The compounds were tested by means of FP with the full-length PRMT5-MEP50 complex; made in house
T1 sequence (O14744 whole entry): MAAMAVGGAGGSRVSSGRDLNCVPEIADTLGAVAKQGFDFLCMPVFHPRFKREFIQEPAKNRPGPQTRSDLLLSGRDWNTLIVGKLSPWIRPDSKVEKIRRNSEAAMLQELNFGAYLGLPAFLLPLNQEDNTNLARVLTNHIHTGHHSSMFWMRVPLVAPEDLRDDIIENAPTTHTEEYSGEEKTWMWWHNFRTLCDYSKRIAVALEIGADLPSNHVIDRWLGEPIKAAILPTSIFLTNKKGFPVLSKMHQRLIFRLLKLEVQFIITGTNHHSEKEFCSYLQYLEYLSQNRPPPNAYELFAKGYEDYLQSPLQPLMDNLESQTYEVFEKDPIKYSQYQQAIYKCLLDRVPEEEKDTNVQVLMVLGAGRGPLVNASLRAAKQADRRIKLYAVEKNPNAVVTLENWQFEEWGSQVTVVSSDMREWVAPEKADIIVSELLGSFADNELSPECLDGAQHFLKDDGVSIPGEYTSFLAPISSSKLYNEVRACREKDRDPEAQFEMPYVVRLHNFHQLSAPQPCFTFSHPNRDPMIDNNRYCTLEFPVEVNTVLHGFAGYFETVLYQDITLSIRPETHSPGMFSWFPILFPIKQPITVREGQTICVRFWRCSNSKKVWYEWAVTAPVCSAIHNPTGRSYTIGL
T1 sequence (Q9BQA1 whole entry partner): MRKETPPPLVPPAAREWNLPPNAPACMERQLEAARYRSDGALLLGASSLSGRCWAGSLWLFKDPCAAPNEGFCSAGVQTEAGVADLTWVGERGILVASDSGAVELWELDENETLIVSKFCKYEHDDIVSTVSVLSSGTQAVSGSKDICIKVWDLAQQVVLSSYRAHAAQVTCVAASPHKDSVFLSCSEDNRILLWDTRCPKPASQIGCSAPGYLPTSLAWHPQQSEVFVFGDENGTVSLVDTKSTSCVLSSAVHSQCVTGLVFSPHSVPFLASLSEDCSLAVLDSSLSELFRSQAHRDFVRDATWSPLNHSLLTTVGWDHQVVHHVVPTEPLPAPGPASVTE
Procedure: The assay was performed in a buffer of 50 mM 4-(2-hydroxyethyl)-1-piperazineethanesulfonic acid (HEPES), 250 mM NaCl, 1 mM tris(2-carboxyethyl)phosphine (TCEP), and 0.01% (v/v) Tween 20, pH 8.0, in black, 384-well plates with a total volume of 10 μL per well. […] The plates were incubated at room temperature for 1 to 2 h and analyzed on a plate reader using 485 nm excitation and 535 nm emission wavelength. The assay was performed in triplicate.

| Kd [nM] | SMILES |
| --- | --- |
| > 2000 | CC(=O)NC1CCCCC[C@@H](C(=O)N[C@@H](CC(=O)O)C(=O)N[C@@H](C)C(=O)N[C@@H](CC(C(=O)O)C(=O)O)C(=O)N[C@@H](CCCCNC(=S)Nc2ccc3c(c2)C(=O)OC32c3ccc(O)cc3Oc3cc(O)ccc32)C(N)=O)NC(=O)[C@H](Cc2ccc([N+](=O)[O-])cc2)NC(=O)[C@H](CCC(N)=O)NC1=O (stereo in doubt) [Compound 51] |

same assay, conditions: supplementary CSV, read-out: PRMT5-MEP50 Kd

| SMILES | Kd [nM] |
| --- | --- |
| CC(C)[C@H](NC(=O)[C@H](CCCNC(=N)N)NC(=O)[C@H](CO)NC(=O)COCCOCCNC(=S)Nc1ccc2c(c1)C(=O)OC21c2ccc(O)cc2Oc2cc(O)ccc21)C(=O)N[C@H](C(=O)N1CCC[C@H]1C(=O)N[C@@H]1CNC(=O)CC[C@H](C(=O)N[C@@H](CC(=O)O)C(=O)N[C@@H](C)C(=O)N[C@@H](CC(=O)O)C(N)=O)NC(=O)[C@H](Cc2ccccc2)NC(=O)[C@H](CCC(N)=O)NC1=O)C(C)C [Compound 10] | > 2000 |
| CC(C)[C@H](NC(=O)[C@H](CCCNC(=N)N)NC(=O)[C@H](CO)NC(=O)COCCOCCNC(=S)Nc1ccc2c(c1)C(=O)OC21c2ccc(O)cc2Oc2cc(O)ccc21)C(=O)N[C@H](C(=O)N1CCC[C@H]1C(=O)N[C@@H]1CCCC[C@H](C(=O)N[C@@H](CC(=O)O)C(=O)N[C@@H](C)C(=O)N[C@@H](CC(=O)O)C(N)=O)NC(=O)[C@H](Cc2ccccc2)NC(=O)[C@H](CCC(N)=O)NC1=O)C(C)C [Compound 16] | > 2000 |
| CC(C)[C@H](NC(=O)[C@H](CCCNC(=N)N)NC(=O)[C@H](CO)NC(=O)COCCOCCNC(=S)Nc1ccc2c(c1)C(=O)OC21c2ccc(O)cc2Oc2cc(O)ccc21)C(=O)N[C@H](C(=O)N1CCC[C@H]1C(=O)NC1CCNC(=O)C[C@@H](C(=O)N[C@@H](CC(=O)O)C(=O)N[C@@H](C)C(=O)N[C@@H](CC(=O)O)C(N)=O)NC(=O)[C@H](Cc2ccccc2)NC(=O)[C@H](CCC(N)=O)NC1=O)C(C)C (stereo in doubt) [Compound 7] | > 2000 |
| CC(C)[C@H](NC(=O)[C@H](CCCNC(=N)N)NC(=O)[C@H](CO)NC(=O)COCCOCCNC(=S)Nc1ccc2c(c1)C(=O)OC21c2ccc(O)cc2Oc2cc(O)ccc21)C(=O)N[C@H](C(=O)N1CCC[C@H]1C(=O)N[C@@H]1CC=CC[C@H](C(=O)N[C@@H](CC(=O)O)C(=O)N[C@@H](C)C(=O)N[C@@H](CC(=O)O)C(N)=O)NC(=O)[C@H](Cc2ccccc2)NC(=O)[C@H](CCC(N)=O)NC1=O)C(C)C (single isomer, unassigned) [15 (isomer 1)] | > 2000 |
| CC(=O)N(C)[C@H](C(=O)N1CCC[C@H]1C(=O)NCC(=O)N[C@@H](CCC(N)=O)C(=O)N[C@@H](Cc1ccccc1)C(=O)N[C@@H](CC(=O)O)C(=O)N[C@@H](CC(=O)O)C(=O)N[C@@H](C)C(=O)N[C@@H](CC(=O)O)C(=O)N[C@@H](CCCCNC(=S)Nc1ccc2c(c1)C(=O)OC21c2ccc(O)cc2Oc2cc(O)ccc21)C(N)=O)C(C)C [Compound 49] (Ac-[NMeV]PGQFDDADK(FITC)-NH2) | > 2000 |
| CC(=O)N[C@H](C(=O)N1CCC[C@H]1C(=O)N[C@@H]1CCCCCC[C@H](C(=O)N[C@@H](CC(=O)O)C(=O)N[C@@H](C)C(=O)N[C@@H](CC(=O)O)C(=O)N[C@@H](CCCCNC(=S)Nc2ccc3c(c2)C(=O)OC32c3ccc(O)cc3Oc3cc(O)ccc32)C(N)=O)NC(=O)[C@H](Cc2ccccc2)NC(=O)[C@H](CCC(N)=O)NC1=O)C(C)C [Compound 27] | > 2000 |
| CC(=O)N[C@H](C(=O)N1CCC[C@H]1C(=O)NCC(=O)N[C@@H](CCC(N)=O)C(=O)N[C@@H](Cc1ccccc1)C(=O)N[C@@H](CC(=O)O)C(=O)N[C@@H](CC(=O)O)C(=O)N(C)[C@@H](C)C(=O)N[C@@H](CC(=O)O)C(=O)N[C@@H](CCCCNC(=S)Nc1ccc2c(c1)C(=O)OC21c2ccc(O)cc2Oc2cc(O)ccc21)C(N)=O)C(C)C [Compound 45, Ac-VPGQFDD-(N-Me)A-DK(Fitc)-NH2] (Ac-VPGQFDD[NMeA]DK(FITC)-NH2) | > 2000 |
| CC(C)[C@H](NC(=O)[C@H](CCCNC(=N)N)NC(=O)[C@H](CO)NC(=O)COCCOCCNC(=S)Nc1ccc2c(c1)C(=O)OC21c2ccc(O)cc2Oc2cc(O)ccc21)C(=O)N[C@H](C(=O)N1CCC[C@H]1C(=O)NC1CNC(=O)C[C@@H](C(=O)N[C@@H](CC(=O)O)C(=O)N[C@@H](C)C(=O)N[C@@H](CC(=O)O)C(N)=O)NC(=O)[C@H](Cc2ccccc2)NC(=O)[C@H](CCC(N)=O)NC1=O)C(C)C (stereo in doubt) [Compound 5] | > 2000 |
| CC(=O)N[C@@H](Cc1ccc(O)cc1)C(=O)N1CCC[C@H]1C(=O)NCC(=O)N[C@@H](CCC(N)=O)C(=O)N[C@@H](Cc1ccccc1)C(=O)N[C@@H](CC(=O)O)C(=O)N[C@@H](CC(=O)O)C(=O)N[C@@H](C)C(=O)N[C@@H](CC(=O)O)C(=O)N[C@@H](CCCCNC(=S)Nc1ccc2c(c1)C(=O)OC21c2ccc(O)cc2Oc2cc(O)ccc21)C(N)=O [Compound S2] (Ac-YPGQFDDADK(FITC)-NH2) | > 1000 |

Further lines, results first:

| Kd [nM] | SMILES |
| --- | --- |
| 695 ± 78 | CC(=O)N[C@@H](CCC(=O)O)C(=O)N1CCC[C@H]1C(=O)NCC(=O)N[C@@H](CCC(N)=O)C(=O)N[C@@H](Cc1ccccc1)C(=O)N[C@@H](CC(=O)O)C(=O)N[C@@H](CC(=O)O)C(=O)N[C@@H](C)C(=O)N[C@@H](CC(=O)O)C(=O)N[C@@H](CCCCNC(=S)Nc1ccc2c(c1)C(=O)OC21c2ccc(O)cc2Oc2cc(O)ccc21)C(N)=O [Compound S7] (Ac-EPGQFDDADK(FITC)-NH2) |
| > 1000 | CC(=O)N[C@H](C(=O)N1CCC[C@H]1C(=O)NCC(=O)N[C@@H](CCC(N)=O)C(=O)N[C@@H](Cc1cccc(Cl)c1)C(=O)N[C@@H](CC(=O)O)C(=O)N[C@@H](CC(=O)O)C(=O)N[C@@H](C)C(=O)N[C@@H](CC(=O)O)C(=O)N[C@@H](CCCCNC(=S)Nc1ccc2c(c1)C(=O)OC21c2ccc(O)cc2Oc2cc(O)ccc21)C(N)=O)C(C)C [Compound S15] (Ac-VPGQ[Phe(3-Cl)]DDADK(FITC)-NH2) |
| > 1000 | CC(=O)N[C@H](C(=O)N1CCC[C@H]1C(=O)NCC(=O)N[C@@H](CCC(N)=O)C(=O)N[C@@H](Cc1cccc(C(F)(F)F)c1)C(=O)N[C@@H](CC(=O)O)C(=O)N[C@@H](CC(=O)O)C(=O)N[C@@H](C)C(=O)N[C@@H](CC(=O)O)C(=O)N[C@@H](CCCCNC(=S)Nc1ccc2c(c1)C(=O)OC21c2ccc(O)cc2Oc2cc(O)ccc21)C(N)=O)C(C)C [Compound S16] (Ac-VPGQ[Phe(3-CF3)]DDADK(FITC)-NH2) |
| > 1000 | CC(=O)N[C@H](C(=O)N1CCC[C@H]1C(=O)NCC(=O)N[C@@H](CCN)C(=O)N[C@@H](Cc1ccccc1)C(=O)N[C@@H](CC(=O)O)C(=O)N[C@@H](CC(=O)O)C(=O)N[C@@H](C)C(=O)N[C@@H](CC(=O)O)C(=O)N[C@@H](CCCCNC(=S)Nc1ccc2c(c1)C(=O)OC21c2ccc(O)cc2Oc2cc(O)ccc21)C(N)=O)C(C)C [Compound S9] (Ac-VPG[Dab]FDDADK(FITC)-NH2) |
| > 1000 | CC(=O)N[C@H](C(=O)N1CCC[C@H]1C(=O)NCC(=O)N[C@@H](CCC(N)=O)C(=O)N[C@@H](Cc1ccc(N=C(N)N)cc1)C(=O)N[C@@H](CC(=O)O)C(=O)N[C@@H](CC(=O)O)C(=O)N[C@@H](C)C(=O)N[C@@H](CC(=O)O)C(=O)N[C@@H](CCCCNC(=S)Nc1ccc2c(c1)C(=O)OC21c2ccc(O)cc2Oc2cc(O)ccc21)C(N)=O)C(C)C [Compound S20] (Ac-VPGQ[Phe(4-guanidino)]DDADK(FITC)-NH2) |
| > 1000 | CC(=O)N[C@H](C(=O)N1CCC[C@H]1C(=O)NCC(=O)N[C@@H](CCC(N)=O)C(=O)N[C@@H](Cc1ccccn1)C(=O)N[C@@H](CC(=O)O)C(=O)N[C@@H](CC(=O)O)C(=O)N[C@@H](C)C(=O)N[C@@H](CC(=O)O)C(=O)N[C@@H](CCCCNC(=S)Nc1ccc2c(c1)C(=O)OC21c2ccc(O)cc2Oc2cc(O)ccc21)C(N)=O)C(C)C [Compound S17] (Ac-VPGQ[2Pal]DDADK(FITC)-NH2) |
| > 1000 | CC(=O)N[C@H](C(=O)N1CCC[C@H]1C(=O)NCC(=O)N[C@@H](CCC(N)=O)C(=O)N[C@@H](Cc1c(F)c(F)c(F)c(F)c1F)C(=O)N[C@@H](CC(=O)O)C(=O)N[C@@H](CC(=O)O)C(=O)N[C@@H](C)C(=O)N[C@@H](CC(=O)O)C(=O)N[C@@H](CCCCNC(=S)Nc1ccc2c(c1)C(=O)OC21c2ccc(O)cc2Oc2cc(O)ccc21)C(N)=O)C(C)C [Compound S13] (Ac-VPGQ[Phe(F5)]DDADK(FITC)-NH2) |
| > 1000 | CC(=O)N[C@H](C(=O)N1CCC[C@H]1C(=O)NCC(=O)N[C@@H](CCC(N)=O)C(=O)N[C@@H](Cc1cccc2ccccc12)C(=O)N[C@@H](CC(=O)O)C(=O)N[C@@H](CC(=O)O)C(=O)N[C@@H](C)C(=O)N[C@@H](CC(=O)O)C(=O)N[C@@H](CCCCNC(=S)Nc1ccc2c(c1)C(=O)OC21c2ccc(O)cc2Oc2cc(O)ccc21)C(N)=O)C(C)C [Compound S25] (Ac-VPGQ[1Nal]DDADK(FITC)-NH2) |
| > 1000 | CCC[C@H](NC(=O)[C@H](CC(=O)O)NC(=O)[C@H](CC(=O)O)NC(=O)[C@H](Cc1ccccc1)NC(=O)[C@H](CCC(N)=O)NC(=O)CNC(=O)[C@@H]1CCCN1C(=O)[C@@H](NC(C)=O)C(C)C)C(=O)N[C@@H](CC(=O)O)C(=O)N[C@@H](CCCCNC(=S)Nc1ccc2c(c1)C(=O)OC21c2ccc(O)cc2Oc2cc(O)ccc21)C(N)=O [Compound S28] (Ac-VPGQFDD[Nva]DK(FITC)-NH2) |
| > 1000 | CC(=O)N[C@H](C(=O)N1CCC[C@H]1C(=O)NCC(=O)N[C@@H](CCC(N)=O)C(=O)N[C@@H](Cc1ccc(O)cc1)C(=O)N[C@@H](CC(=O)O)C(=O)N[C@@H](CC(=O)O)C(=O)N[C@@H](C)C(=O)N[C@@H](CC(=O)O)C(=O)N[C@@H](CCCCNC(=S)Nc1ccc2c(c1)C(=O)OC21c2ccc(O)cc2Oc2cc(O)ccc21)C(N)=O)C(C)C [Compound S18] (Ac-VPGQYDDADK(FITC)-NH2) |
| > 1000 | CC[C@H](NC(=O)[C@H](CC(=O)O)NC(=O)[C@H](CC(=O)O)NC(=O)[C@H](Cc1ccccc1)NC(=O)[C@H](CCC(N)=O)NC(=O)CNC(=O)[C@@H]1CCCN1C(=O)[C@@H](NC(C)=O)C(C)C)C(=O)N[C@@H](CC(=O)O)C(=O)N[C@@H](CCCCNC(=S)Nc1ccc2c(c1)C(=O)OC21c2ccc(O)cc2Oc2cc(O)ccc21)C(N)=O [Compound S27] (Ac-VPGQFDD[Abu]DK(FITC)-NH2) |
